Reference: US7135326B2, “UDP-glucosyltransferases” (E. I. du Pont de Nemours and Company, priority 2002, dated 2006)

Key:
[1] = test system: Arabidopsis thaliana glucosyltransferase UGT84A1 (84A1, GT 3, SEQ ID NO:8); conditions: 20° C.; Lim et al. 2002; cited from earlier work
[2] = target: T1, Grape (Vitis sp.) UDP-glucosyltransferase (Grape GT), wild type, SEQ ID NO:18 (Vitis vinifera, UniProt F6H660); assay: Substrate inhibition of Grape GT in cell-free extract (initial rates, Table 2); format: biochemical; conditions: 10 mM pHBA; 25° C., pH 7.3, 10 mM UDP-glucose; data of Table 2
T1 construct: cell-free extract and purified recombinant protein
T1 sequence (F6H660 1-478): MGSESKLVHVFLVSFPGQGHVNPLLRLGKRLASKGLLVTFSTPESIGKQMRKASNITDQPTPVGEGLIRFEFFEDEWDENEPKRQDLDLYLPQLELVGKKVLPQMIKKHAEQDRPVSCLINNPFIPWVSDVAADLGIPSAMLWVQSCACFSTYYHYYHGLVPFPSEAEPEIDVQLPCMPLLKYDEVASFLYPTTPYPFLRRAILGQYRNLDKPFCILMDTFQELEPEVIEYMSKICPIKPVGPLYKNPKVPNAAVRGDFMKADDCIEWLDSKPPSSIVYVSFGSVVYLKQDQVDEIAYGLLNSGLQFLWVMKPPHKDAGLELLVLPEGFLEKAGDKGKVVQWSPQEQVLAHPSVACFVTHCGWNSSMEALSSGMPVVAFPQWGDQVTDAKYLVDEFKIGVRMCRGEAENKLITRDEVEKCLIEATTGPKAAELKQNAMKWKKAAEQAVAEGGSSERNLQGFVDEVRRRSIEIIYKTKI
Experimental: For protein production, the resulting recombinant strains were grown at 22° C. in 50 mL of LB media that contained kanamycin (50 μg/mL). At an A600 nm of ˜0.6, isopropyl-1-thio-β-D-galactopyranoside was added to a final concentration of 0.2 mM. Following a 22-h induction period at the same temperature, the cells were harvested by centrifugation and stored at −80° C. for subsequent manipulation as described below.
The frozen cell pellets were resuspended in 1.0 mL of a solution containing 100 mM Tris-HCl (pH 7.7), 5 mM MgSO4, 1 mM dithiothreitol, 0.03 mg/mL DNAse I, 0.5 mM phenylmethanesulfonyl fluoride, and passed once through a French pressure cell at 20,000 psi. […] Protein concentrations were determined by the Bradford Method using bovine serum albumin as a standard.
The second assay is based on the increase in absorbance at 368 nm that accompanies the formation of the glucose ester of sinapic acid. The experimental conditions were the same as those described above, but the test substrate was sinapic acid and product formation was calculated using an extinction coefficient of 5,570 M^−1 that was obtained with the authentic chemically synthesized compound under identical conditions. […]

[3] = target: T1, Grape (Vitis sp.) UDP-glucosyltransferase (Grape GT), wild type, SEQ ID NO:18; assay: Kinetic analysis of purified recombinant Grape GT (spectrophotometric assay at 304 nm); format: biochemical; conditions: saturated with pHBA; 25° C., pH 7.3, 10 mM UDP-glucose
Experimental: Turnover number for the present enzyme is determined according to principles well known in the art. […] Using the protein concentration as determined in μmols in the assay, one can determine how many μmols product are formed using 1.0 μmols enzyme in a fixed time period such as a second (i.e., how many times catalytic turnover occurred).
Initial rates of product formation were measured at 25° C. over a wide range of substrate concentrations using the spectrophotometric assay (see Example 4).

[4] = test system: Arabidopsis thaliana UDP-glucosyltransferase 75B1; conditions: 20° C.; Lim et al. 2002; cited from earlier work
[5] = test system: Arabidopsis thaliana glucosyltransferase UGT84A3 (GT 4, SEQ ID NO:12); conditions: 20° C., pH 6; calculated from Vmax of Lim et al. 2001; cited from earlier work
[6] = test system: Arabidopsis thaliana glucosyltransferase UGT84A2; conditions: 20° C., pH 6; calculated from Vmax of Lim et al. 2001; cited from earlier work

## O=C(O)c1ccc(O)cc1 [pHBA, p-Hydroxybenzoic acid]
[1]
  turnover number with pHBA: ~0.21 sec^−1
[2]
  substrate inhibition (in words): little, if any, substrate inhibition
[3]
  turnover number (kcat): ~10.9 s⁻¹
[4]
  turnover number (formation of the pHBA ester glucoside): 0.73 sec^−1

## O=C(O)/C=C/c1ccccc1 [cinnamic acid]
[5]
  turnover number with cinnamic acid: ~0.9 s⁻¹

## COc1cc(/C=C/C(=O)O)cc(OC)c1O [sinapic acid, Sinapic acid]
[6]
  turnover number with sinapic acid: ~0.72 s⁻¹
